From patent US11306073B2, “N-acylurea derivative and composition comprising same for prevention or treatment of cardiovascular disease” (KOREA UNIVERSITY RESEARCH AND BUSINESS FOUNDATION, priority 2016, dated 2022)

Experiments:
CHO/αIIbβ3 cell line = test: Screening of talin antagonist candidates: binding of CHO/αIIbβ3 cells to fibrinogen-coated plate (CCK-8 readout); type: cell-based; conditions: 0.2 mM of candidate; compared to a negative control; FIG. 2; read-out: inhibition of the binding between the CHO/αIIbβ3 cell line and fibrinogen
Method: Cells expressing platelet integrin αIIbβ3 were incubated with 0.2 mM of candidates, and the binding between the cells and fibrinogen was verified according to the experimental method shown in FIG. 1. In FIG. 2, 0% is a negative control and represents the degree to which cells adhere to a surface coated with bovine serum albumin (BSA) instead of fibrinogen, and 100% is a positive control and represents the degree to which cells adhere to fibrinogen in the absence of any candidate. The ability of candidates to inhibit fibrinogen binding was normalized to 100%, and the mean and standard error of three experiments are graphically shown.
Platelets bind to fibrinogen present in blood and produce thrombi. This binding is mediated by integrin αIIbβ3 present in the platelet cell membrane, and this integrin binds to fibrinogen after being activated by talin. In order to enable high-throughput efficacy testing by simplifying this procedure into a cell line-based experiment, integrin αIIbβ3 was first stably expressed in the CHO cell line using lentivirus, thereby constructing a CHO/αIIbβ3 cell line. The constructed cell line was cultured in a fibrinogen-coated 96-well plate for 1 hour and washed, after which the amount of remaining cells was measured to evaluate the efficacy of a talin antagonist candidate. In this procedure, in order to measure the relative amount of the CHO/αIIbβ3 cell line remaining in the well due to binding to fibrinogen, a cell counting kit-8 (CCK-8) was used to measure the activity of dehydrogenase present in the remaining cells. When the activity of dehydrogenase appeared due to the presence of the cells, the color of CCK-8 changed from yellow to orange (FIG. 1). To measure the degree to which the color changed to orange, the absorbance at a wavelength of 450 nm was measured with a plate reader. This enabled easy, fast and reliable high-throughput screening.
To screen talin antagonist candidates, inhibition of the binding affinity between the CHO/αIIbβ3 cell line and fibrinogen was examined by the above-described efficacy testing method.
As a result, it was shown that compounds, including KCH-1420, KCH-1424, KCH-1510, KCH-1511, KCH-1512, KCH-1513, KCH-1516, KCH-1518, KCH-1521, KCH-1523, KCH-1526, KCH-1529, KCH-1530, and KCH-1542 inhibited the binding between the CHO/αIIbβ3 cell line and fibrinogen by at least 80% compared to a negative control (FIG. 2). […] In FIG. 3, like FIG. 2, cells expressing platelet integrin αIIbβ3 were incubated with varying concentrations of a candidate, and the binding between the cells and fibrinogen was examined. Cell adhesion on the Y-axis is the relative degree of cell-fibrinogen binding.

mouse blood platelets = test: Platelet aggregation inhibitory effect using mouse platelets activated by thrombin; type: cell-based; conditions: 0.2 mM compound, FIG. 5
Method: It is well known that platelets bind to fibrinogen in blood and form thrombi, which leads to the contraction of intracellular skeletal muscle due to signaling after the binding between activated integrin a αIIbβ3 and fibrinogen. To achieve this thrombus formation in vitro, mouse blood platelets were isolated and thrombin known as a platelet activator was added thereto. As a result, as shown in the left photograph of FIG. 5, the platelets were aggregated. However, when platelets were treated with thrombin in combination with KCH-1513 or KCH-1521, it was observed that platelet aggregation that was increased by thrombin decreased when 0.2 mM of KCH-1513 (middle photograph) or the same concentration of KCH-1521 (right photograph) was added.

[1] = target: T1, talin protein (6×His-tagged F2F3 protein) (Homo sapiens, UniProt Q9Y490); test: Binding affinity between talin protein and candidate by surface plasmon resonance; conditions: SPR, talin F2F3 immobilized on sensor chip; FIG. 4; read-out: affinity constant
T1 construct: 6×His-tagged F2F3 protein containing F3 was isolated and purified; 6×His; made in house
Method: To measure the binding affinity between the talin protein and a talin antagonist candidate, surface plasmon resonance spectroscopy was used. Specifically, a talin antagonist candidate was added to the talin protein immobilized on a sensor chip, and the affinity constant between the two substances was measured by surface plasmon resonance (hereinafter referred to as ‘SPR’) spectrometry.
Talin is divided into an N-terminal head domain and a C-terminal rod domain, and the head domain is further divided into four subdomains, F0, F1, F2 and F3. Among them, F3 is known as an integrin binding site. Thus, 6×His-tagged F2F3 protein containing F3 was isolated and purified. As a sensor chip for immobilizing the talin protein, HTEPBE10PO1 (Biorad) was used. SPR was measured using ProteON™ XPR36 (Biorad).

T1 sequence (Q9Y490 196-405 limits assumed): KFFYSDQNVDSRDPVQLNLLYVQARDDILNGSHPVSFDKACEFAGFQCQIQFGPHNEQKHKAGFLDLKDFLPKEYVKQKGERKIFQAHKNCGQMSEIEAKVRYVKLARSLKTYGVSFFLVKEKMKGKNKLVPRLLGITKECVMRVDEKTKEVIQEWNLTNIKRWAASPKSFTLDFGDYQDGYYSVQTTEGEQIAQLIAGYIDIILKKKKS

Kd [1] [mM]	Structure (SMILES)	inhibition at 200 µM (CHO/αIIbβ3 cell line) [%]	inhibition of thrombin-induced platelet aggregation (mouse blood platelets)
0.271	O=C(COc1ccc2c(c1)OCO2)NC(=O)NCCc1c[nH]c2ccccc12 [KCH-1521]	≥ 80	significantly inhibit platelet aggregation
	COc1cc(NC(=O)NC(=O)COc2ccccc2OC)ccc1Br [KCH-1526, N-((4-bromo-3-methoxyphenyl)carbamoyl)-2-(2-methoxyphenoxy)acetamide]	≥ 80	
	CC(C)(C)OC(=O)N1CCN(CC(=O)NC(=O)Nc2ccccc2F)CC1 [KCH-1424, tert-butyl 4-(2-(3-(2-fluorophenyl)ureido)-2-oxoethyl)piperazine-1-carboxylate]	≥ 80	
	COc1cc(NC(=O)NC(=O)COc2ccc3c(c2)OCO3)ccc1Br [KCH-1518, 2-(benzo[d][1,3]dioxo1-5-yloxy)-N-((4-bromo-3-methoxyphenyl)carbamoyl) acetamide]	≥ 80	
	O=C(COc1ccc2c(c1)OCO2)NC(=O)Nc1ccc(OCc2ccccc2)cc1 [KCH-1523, 2-(benzo[d][1,3]dioxol-5-yloxy)-N-((4-(benzyloxy)phenyl)carbamoyl) acetamide]	≥ 80	
	COc1ccccc1OCC(=O)NC(=O)NCCc1c[nH]c2ccccc12 [KCH-1529, N-((2-(1H-indol-3-yl)ethyl)carbamoyl)-2-(2-methoxyphenoxy)acetamide]	≥ 80	
	Cc1cccc(OCC(=O)NC(=O)Nc2ccccc2F)c1C [KCH-1420, 2-(2,3-dimethylphenoxy)-N-((2-fluorophenyl)carbamoyl)acetamide]	≥ 80	
	COc1ccc(NC(=O)NC(=O)COc2cccc(Br)c2)c(OC)c1 [KCH-1542, 2-(3-bromophenoxy)-N-((2,4-dimethoxyphenyl)carbamoyl)acetamide]	≥ 80	
9.33	O=C(Cn1nnc(-c2ccccc2)n1)NC(=O)NCCC1=CNC2C=CC=CC12 (stereo not drawn) [KCH-1513, N-((2-(3a,7a-dihydro-1H-indol-3-yl)ethyl)carbamoyl)-2-(5-phenyl-2H-tetrazol-2-yl)acetamide]	≥ 80	significantly inhibit platelet aggregation
	COc1ccc(NC(=O)NC(=O)COc2ccccc2OC)c(OC)c1 [KCH-1530, N-((2,4-dimethoxyphenyl)carbamoyl)-2-(2-methoxyphenoxy)acetamide]	≥ 80	
	O=C(Cn1nnc(-c2ccccc2)n1)NC(=O)Nc1ccc(Oc2ccccc2)cc1 [KCH-1511, N-((4-phenoxyphenyl)carbamoyl)-2-(5-phenyl-2H-tetrazol-2-yl)acetamide]	≥ 80	
	COc1cc(NC(=O)NC(=O)Cn2nnc(-c3ccccc3)n2)ccc1Br [KCH-1510, N-((4-bromo-3-methoxyphenyl)carbamoyl)-2-(5-phenyl-2H-tetrazol-2-yl)acetamide]	≥ 80	
	COc1ccc(CNC(=O)NC(=O)Cn2nnc(-c3ccccc3)n2)cc1 [KCH-1512, N-((4-methoxybenzyl)carbamoyl)-2-(5-phenyl-2H-tetrazol-2-yl)acetamide]	≥ 80	
	O=C(Cn1nnc(-c2ccccc2)n1)NC(=O)Nc1ccccc1F [KCH-1516, N-((2-fluorophenyl)carbamoyl)-2-(5-phenyl-2H-tetrazol-2-yl)acetamide]	≥ 80	
